Data set [1] concerns ENR+CD organoids. The data set is described as follows: Secondary (validation) screen: ATP (CTG) assay, 2.5-D 384-well ENR+CD organoids. Type of data set: cell-based, mouse. To be noted: 6-day ENR+CD, vs ENR+CD+DMSO.
The test system of data set [2] is 3D-cultured intestinal organoids (ENR or ENR+CD). The data set is described as follows: Lysozyme secretion assay (3D culture), normalized to ATP. Type of data set: cell-based, mouse. The method, then: Lysozyme assay (3D culture). ISC-enriched organoids cultured in 3D Matrigel with ENRCV media were passaged to 48-well plate in 3D Matrigel with ENRCV. At day zero, media were replaced to ENR or ENRCD with or without indicated compounds, and media were replaced every other day. At day six, cells were washed twice with basal media and treated with carbamylcholine chloride (Sigma, C4382) for 3 hours. Media were collected and lysozyme activity was measured by EnzChek Lysozyme Assay Kit (ThermoFisher, E22013).
Lysozyme secretion assay. ISC-enriched organoids in 3D Matrigel culture were passaged to a 48- or 96-well plate and cultured with ENR or ENR+CD media containing DMSO or each drug for 6 days. DMSO- or drug-containing media were changed every other day. On day 6, cells were washed with basal media twice and treated with basal media with or without 10 μM carbamoylcholine chloride for 3 h in a CO2 incubator at 37° C. A part of the conditioned media was collected and used for lysozyme assay (Thermo, E-22013) following the manufacturer's instruction. The fluorescence was measured using excitation/emission of 485/530 nm. CellTiter-Glo 3D Reagent (Promega, G9681) was added afterward, and the cell culture plate was incubated on an orbital shaker at RT for 30 min to induce cell lysis and to stabilize the luminescent signal. The solution was replaced to a 96-well white microplate, and luminescent signals were measured by a microplate reader (infinite M200, Tecan). The standard curve was prepared by diluting recombinant ATP (Promega, P1132). For both assays, a polynomial cubic curve was fitted to a set of standard data, and each sample value was calculated on the Microsoft Excel.

The nature of data set [3]: Animal study: oral gavage every other day for two weeks, body weight. Type of data set: in vivo, mouse. The method, then: Following a similar protocol as previously reported for SINE treatment in the context of cancer (Arango et al., 2017; Azmi et al., 2013; Hing et al., 2016; Zheng et al., 2014), KPT-330 was administered at a dose 10 mg/kg via oral gavage every other day over a two-week span in C57BL/6 wild-type mice, and body weight was monitored for any clear toxicity. […] Given animal weight loss on the standard chemotherapeutic dosage regimen, and additional evidence that sustained dosage of SINEs adversely impacts T cell populations (Tyler et al., 2017), Applicants sought to explore dosing regimens well below 10 mg/kg, to see if a pro-Paneth phenotype may exist below potential toxicities. […] Applicants tracked animal weight every other day, and at day 14 collected the proximal and distal thirds of the small intestine for histological quantification of Paneth, stem, and goblet populations (FIG. 26A). […] Paneth cells were counted within well preserved crypts, with at minimum 30 crypts quantified per animal (representative images FIG. 30C) and then averaged to get mean Paneth cells per crypt in distal and proximal thirds of the small intestine. […] Applicants additionally quantified the abundance of Olfm4+ stem cells as well as PAS+ goblet cells within the same animals to ascertain whether the effect of SINE treatment was restricted to the Paneth cell compartment (representative images FIG. 30D,E). […]

With `O=C(/C=C\n1cnc(-c2cc(C(F)(F)F)cc(C(F)(F)F)c2)n1)NNc1cnccn1` [KPT-330], the Dose.FC.CTG in data set [1] (0.02 uM) was determined as 0.126 log2 fold change; in data set [1] (0.04 uM), 0.029 log2 fold change; in data set [1] (0.08 uM), 0.141 log2 fold change; in data set [1] ([…]), 0.120 log2 fold change. In addition, the “enrichment, treatment day 4-6 (by LYZ secretion assay)” value in data set [2] (2-day treatment within 6-day ENR+CD differentiation, read at day 6) was “minorly enriched”. For the same compound, the “most effective dose among tested concentrations (LYZ secretion)” value in data set [2] (6 days ENR+CD, basal and Cch-stimulated) worked out at 160 nM. The “Paneth cell-specific activity (lysozyme assay) in conventional ENR culture” value in data set [2] (ENR media, 3-D, 6 days) is “enhancing Paneth cell-specific activity”. Moreover, in data set [2] (up to 160 nM, 6 days ENR+CD), the “Paneth cell activity (LYZ secretion, basal and Cch-stimulated), dose dependence” value is on record as “enhanced Paneth cell activity in a dose-dependent manner”. The body weight result is “significant weight loss” in data set [3] (10 mg/kg oral gavage every other day); “no significant changes in animal weight at any dose” in data set [3] (0.2, 0.05 and 0.01 mg/kg oral gavage every other day).
